Experimental data from ChEMBL document CHEMBL5465560, “Selectivity Literature for EUbOPEN Chemogenomic Library” (2024).
One block for each molecule: values may come before it.

Columns and labels:
[1] = molecular target: Phosphorylase b kinase gamma catalytic chain, skeletal muscle/heart isoform (Homo sapiens) (UniProt Q16816); assay: Selectivity interaction (Kinase panel (Z-LYTE Assay)) EUB0001632a PHKG1; conditions: at 10 µM
[2] = molecular target: Homeodomain-interacting protein kinase 3 (Homo sapiens, UniProt Q9H422); assay: Selectivity interaction (KinomeScan (DiscoverX)) EUB0000607a HIPK3; conditions: at 10 µM
Chain of Homeodomain-interacting protein kinase 3 (Q9H422 whole entry, looked up): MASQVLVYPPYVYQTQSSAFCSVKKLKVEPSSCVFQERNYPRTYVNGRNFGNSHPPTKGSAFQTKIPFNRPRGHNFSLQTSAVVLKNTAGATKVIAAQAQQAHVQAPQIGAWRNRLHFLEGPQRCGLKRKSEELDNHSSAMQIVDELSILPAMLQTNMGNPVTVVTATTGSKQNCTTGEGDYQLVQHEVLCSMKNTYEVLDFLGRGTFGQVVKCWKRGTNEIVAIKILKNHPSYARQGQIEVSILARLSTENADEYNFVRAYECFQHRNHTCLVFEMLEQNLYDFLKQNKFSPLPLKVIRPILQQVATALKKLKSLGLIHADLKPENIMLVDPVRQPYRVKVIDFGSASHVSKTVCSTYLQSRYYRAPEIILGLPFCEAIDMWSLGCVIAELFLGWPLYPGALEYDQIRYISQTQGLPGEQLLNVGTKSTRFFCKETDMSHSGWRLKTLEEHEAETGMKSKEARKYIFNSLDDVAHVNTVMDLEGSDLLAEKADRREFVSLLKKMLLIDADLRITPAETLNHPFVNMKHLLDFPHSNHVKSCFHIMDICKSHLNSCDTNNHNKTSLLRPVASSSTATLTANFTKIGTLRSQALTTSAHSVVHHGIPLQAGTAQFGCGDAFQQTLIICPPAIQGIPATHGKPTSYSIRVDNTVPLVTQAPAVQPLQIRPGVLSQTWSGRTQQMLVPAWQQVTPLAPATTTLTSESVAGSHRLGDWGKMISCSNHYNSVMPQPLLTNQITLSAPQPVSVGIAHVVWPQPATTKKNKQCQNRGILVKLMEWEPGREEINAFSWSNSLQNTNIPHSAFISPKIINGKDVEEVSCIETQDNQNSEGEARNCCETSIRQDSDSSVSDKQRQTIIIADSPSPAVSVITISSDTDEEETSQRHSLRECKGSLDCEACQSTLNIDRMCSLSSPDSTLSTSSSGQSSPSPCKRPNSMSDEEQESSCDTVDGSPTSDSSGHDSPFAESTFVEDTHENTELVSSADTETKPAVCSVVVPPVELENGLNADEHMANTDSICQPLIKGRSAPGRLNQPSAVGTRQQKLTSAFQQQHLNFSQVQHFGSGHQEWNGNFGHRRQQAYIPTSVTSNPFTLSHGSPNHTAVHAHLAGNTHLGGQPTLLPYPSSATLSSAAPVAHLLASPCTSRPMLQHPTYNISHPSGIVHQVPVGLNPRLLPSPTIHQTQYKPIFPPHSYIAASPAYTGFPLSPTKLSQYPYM

[3] = molecular target: T1, Mitogen-activated protein kinase kinase kinase kinase 3 (Homo sapiens) (UniProt Q8IVH8); conditions: at 10 µM
T1 sequence (whole entry): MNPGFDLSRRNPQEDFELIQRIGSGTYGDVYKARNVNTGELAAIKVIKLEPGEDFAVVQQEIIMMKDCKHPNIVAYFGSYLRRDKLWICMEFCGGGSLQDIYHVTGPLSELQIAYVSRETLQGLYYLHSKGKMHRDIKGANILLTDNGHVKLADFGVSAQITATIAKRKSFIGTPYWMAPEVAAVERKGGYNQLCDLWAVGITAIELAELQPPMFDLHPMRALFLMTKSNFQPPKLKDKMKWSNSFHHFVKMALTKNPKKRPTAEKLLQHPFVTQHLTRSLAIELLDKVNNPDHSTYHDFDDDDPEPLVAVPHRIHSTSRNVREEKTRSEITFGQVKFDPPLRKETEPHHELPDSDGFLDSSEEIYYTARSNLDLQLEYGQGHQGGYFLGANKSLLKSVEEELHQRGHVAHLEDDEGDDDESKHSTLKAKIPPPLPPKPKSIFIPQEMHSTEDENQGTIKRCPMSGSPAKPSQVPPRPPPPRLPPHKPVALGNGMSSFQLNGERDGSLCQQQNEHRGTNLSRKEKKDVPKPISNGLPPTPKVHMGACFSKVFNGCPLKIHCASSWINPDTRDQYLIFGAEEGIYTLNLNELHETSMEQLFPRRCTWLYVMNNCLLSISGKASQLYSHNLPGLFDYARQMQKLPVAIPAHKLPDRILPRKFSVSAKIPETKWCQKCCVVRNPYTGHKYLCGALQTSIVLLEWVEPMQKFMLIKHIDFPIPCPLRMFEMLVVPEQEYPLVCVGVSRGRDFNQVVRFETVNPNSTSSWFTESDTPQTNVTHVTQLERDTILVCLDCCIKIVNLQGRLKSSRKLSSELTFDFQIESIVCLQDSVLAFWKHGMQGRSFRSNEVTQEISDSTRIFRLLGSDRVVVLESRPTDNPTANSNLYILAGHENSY

[4] = molecular target: Serine/threonine-protein kinase 26 (Homo sapiens, UniProt Q9P289); assay: Selectivity interaction (ActivX KiNativ screen (kinase selectivity in THP-1 cell lysates)) EUB0000639a STK26; type: subcellular; conditions: lysate, at 0.01 µM
[5] = molecular target: Mitogen-activated protein kinase 14 (Homo sapiens, UniProt Q16539); assay: Selectivity interaction (ActivX KiNativ screen (kinase selectivity in THP-1 cell lysates)) EUB0000639a MAPK14; type: subcellular; conditions: lysate, at 0.01 µM
Chain of Mitogen-activated protein kinase 14 (Q16539 whole entry): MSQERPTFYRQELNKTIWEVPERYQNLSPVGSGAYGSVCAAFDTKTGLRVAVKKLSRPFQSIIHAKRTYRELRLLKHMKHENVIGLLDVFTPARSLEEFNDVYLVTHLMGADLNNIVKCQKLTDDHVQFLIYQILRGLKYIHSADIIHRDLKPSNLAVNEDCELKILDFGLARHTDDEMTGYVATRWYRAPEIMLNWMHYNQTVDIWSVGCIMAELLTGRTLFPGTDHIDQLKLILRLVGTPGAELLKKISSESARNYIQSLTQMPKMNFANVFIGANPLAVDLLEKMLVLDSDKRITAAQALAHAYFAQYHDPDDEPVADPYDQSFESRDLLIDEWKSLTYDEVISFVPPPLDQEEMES

[6] = molecular target: Dual specificity protein kinase CLK1 (Homo sapiens, UniProt P49759); assay: Selectivity interaction (ProQinase) EUB0000171b CLK1
Chain of Dual specificity protein kinase CLK1 (P49759 whole entry, looked up): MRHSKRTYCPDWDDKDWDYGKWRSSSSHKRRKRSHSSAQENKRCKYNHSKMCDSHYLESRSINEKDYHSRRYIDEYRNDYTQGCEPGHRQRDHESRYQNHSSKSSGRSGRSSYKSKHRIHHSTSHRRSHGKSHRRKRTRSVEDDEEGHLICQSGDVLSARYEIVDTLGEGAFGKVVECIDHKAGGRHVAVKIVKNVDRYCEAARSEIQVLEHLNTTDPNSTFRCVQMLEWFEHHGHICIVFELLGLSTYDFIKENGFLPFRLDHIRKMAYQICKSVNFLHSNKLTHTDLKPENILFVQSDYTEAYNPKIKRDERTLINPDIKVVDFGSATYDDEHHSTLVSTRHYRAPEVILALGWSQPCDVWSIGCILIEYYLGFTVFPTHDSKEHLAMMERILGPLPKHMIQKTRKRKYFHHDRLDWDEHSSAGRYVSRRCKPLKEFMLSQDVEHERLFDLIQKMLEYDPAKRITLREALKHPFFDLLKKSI

[7] = molecular target: Serine/threonine-protein kinase PAK 6 (Homo sapiens) (UniProt Q9NQU5); assay: Selectivity interaction (KinomeScan (DiscoverX)) EUB0000695a PAK6; conditions: at 100 nM
[8] = molecular target: Tyrosine-protein kinase JAK1 (Homo sapiens, UniProt P23458); assay: Selectivity interaction (NanoBRET assay (HEK293T cells)) EUB0001559a JAK1; type: cell-based, HEK-293T
[9] = molecular target: Cyclin-dependent kinase 7 (Homo sapiens, UniProt P50613); assay: Selectivity interaction (Ambit KINOMEscan and KiNATiv profiling in Jurkat cells) EUB0000090b CDK7; type: cell-based; conditions: at 1 µM
Chain of Cyclin-dependent kinase 7 (P50613 whole entry): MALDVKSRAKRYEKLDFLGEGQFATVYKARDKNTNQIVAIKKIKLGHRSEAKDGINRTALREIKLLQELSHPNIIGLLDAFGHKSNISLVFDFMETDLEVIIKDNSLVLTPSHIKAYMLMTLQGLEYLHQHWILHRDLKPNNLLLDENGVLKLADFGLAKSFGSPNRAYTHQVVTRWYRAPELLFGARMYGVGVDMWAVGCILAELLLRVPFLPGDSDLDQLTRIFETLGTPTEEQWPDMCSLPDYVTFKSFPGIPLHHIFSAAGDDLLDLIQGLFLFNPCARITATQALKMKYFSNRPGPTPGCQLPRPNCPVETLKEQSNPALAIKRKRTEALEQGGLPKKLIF

[10] = molecular target: Serine/threonine-protein kinase haspin (Homo sapiens, UniProt Q8TF76)
Chain of Serine/threonine-protein kinase haspin (Q8TF76 whole entry): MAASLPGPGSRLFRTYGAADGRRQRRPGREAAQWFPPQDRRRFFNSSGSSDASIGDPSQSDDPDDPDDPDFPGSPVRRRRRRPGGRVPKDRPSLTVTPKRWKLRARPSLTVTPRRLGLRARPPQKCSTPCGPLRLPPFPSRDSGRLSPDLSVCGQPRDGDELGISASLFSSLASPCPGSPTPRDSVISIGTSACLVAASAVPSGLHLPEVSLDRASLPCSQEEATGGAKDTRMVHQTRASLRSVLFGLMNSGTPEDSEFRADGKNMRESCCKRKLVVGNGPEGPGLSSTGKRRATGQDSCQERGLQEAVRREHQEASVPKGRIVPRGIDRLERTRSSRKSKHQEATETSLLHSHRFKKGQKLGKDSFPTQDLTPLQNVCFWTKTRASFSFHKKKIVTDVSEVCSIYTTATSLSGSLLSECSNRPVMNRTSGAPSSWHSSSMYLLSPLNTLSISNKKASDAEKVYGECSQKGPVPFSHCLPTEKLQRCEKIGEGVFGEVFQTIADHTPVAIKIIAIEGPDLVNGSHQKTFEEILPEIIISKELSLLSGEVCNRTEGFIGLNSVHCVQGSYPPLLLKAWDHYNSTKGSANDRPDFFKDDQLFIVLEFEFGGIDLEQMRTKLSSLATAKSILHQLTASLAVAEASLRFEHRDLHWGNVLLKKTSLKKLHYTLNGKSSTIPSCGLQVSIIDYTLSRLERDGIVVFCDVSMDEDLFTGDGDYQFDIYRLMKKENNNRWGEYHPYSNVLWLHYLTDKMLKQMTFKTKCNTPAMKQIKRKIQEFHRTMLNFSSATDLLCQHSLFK

[11] = molecular target: Serine/threonine-protein kinase 33 (Homo sapiens) (UniProt Q9BYT3); assay: Selectivity interaction (KinomeScan (DiscoverX)) EUB0000045b STK33
Chain of Serine/threonine-protein kinase 33 (Homo sapiens) (Q9BYT3 whole entry, looked up): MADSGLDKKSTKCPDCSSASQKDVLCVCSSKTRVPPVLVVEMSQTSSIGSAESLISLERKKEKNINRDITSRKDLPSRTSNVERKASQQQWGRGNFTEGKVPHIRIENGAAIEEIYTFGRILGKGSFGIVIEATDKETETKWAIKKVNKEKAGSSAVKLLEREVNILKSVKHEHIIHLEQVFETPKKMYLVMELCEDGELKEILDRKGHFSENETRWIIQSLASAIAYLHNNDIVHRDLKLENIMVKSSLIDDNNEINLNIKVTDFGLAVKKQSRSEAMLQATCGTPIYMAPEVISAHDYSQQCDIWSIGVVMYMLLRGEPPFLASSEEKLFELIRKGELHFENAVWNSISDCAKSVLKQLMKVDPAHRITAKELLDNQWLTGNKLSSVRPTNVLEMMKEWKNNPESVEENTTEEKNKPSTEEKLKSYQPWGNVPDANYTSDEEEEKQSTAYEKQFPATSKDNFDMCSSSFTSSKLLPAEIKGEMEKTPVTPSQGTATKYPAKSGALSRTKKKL

[12] = molecular target: T2, Mitogen-activated protein kinase kinase kinase kinase 2 (Homo sapiens) (UniProt Q12851); assay: Selectivity interaction (KinomeScan (DiscoverX)) EUB0000045b MAP4K2
T2 sequence (whole entry): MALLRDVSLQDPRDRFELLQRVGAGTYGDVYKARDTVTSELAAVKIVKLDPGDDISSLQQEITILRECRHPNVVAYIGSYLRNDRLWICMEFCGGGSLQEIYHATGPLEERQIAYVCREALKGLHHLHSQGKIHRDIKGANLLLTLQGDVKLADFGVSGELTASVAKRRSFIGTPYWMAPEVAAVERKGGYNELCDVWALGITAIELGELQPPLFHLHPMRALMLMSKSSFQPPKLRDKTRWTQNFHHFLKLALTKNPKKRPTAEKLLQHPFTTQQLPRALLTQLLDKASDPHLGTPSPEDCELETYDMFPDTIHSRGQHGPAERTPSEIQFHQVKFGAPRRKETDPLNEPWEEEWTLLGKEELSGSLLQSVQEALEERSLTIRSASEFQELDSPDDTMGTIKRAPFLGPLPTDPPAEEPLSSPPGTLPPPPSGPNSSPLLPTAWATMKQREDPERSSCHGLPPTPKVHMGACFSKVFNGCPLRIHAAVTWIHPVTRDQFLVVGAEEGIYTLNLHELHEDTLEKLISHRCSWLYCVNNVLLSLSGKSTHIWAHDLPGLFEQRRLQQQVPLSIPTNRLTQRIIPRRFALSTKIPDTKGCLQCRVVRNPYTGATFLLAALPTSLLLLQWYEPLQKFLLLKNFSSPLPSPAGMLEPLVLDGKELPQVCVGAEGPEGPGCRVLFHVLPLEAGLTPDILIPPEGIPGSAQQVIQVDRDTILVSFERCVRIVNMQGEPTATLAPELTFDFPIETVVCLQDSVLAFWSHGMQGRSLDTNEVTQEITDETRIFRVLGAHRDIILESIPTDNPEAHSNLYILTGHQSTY

[13] = molecular target: Mitogen-activated protein kinase kinase kinase 20 (Homo sapiens) (UniProt Q9NYL2); assay: Selectivity interaction (KinomeScan (DiscoverX)) EUB0000045b MAP3K20
Chain of Mitogen-activated protein kinase kinase kinase 20 (Homo sapiens) (Q9NYL2 2-800 limits assumed): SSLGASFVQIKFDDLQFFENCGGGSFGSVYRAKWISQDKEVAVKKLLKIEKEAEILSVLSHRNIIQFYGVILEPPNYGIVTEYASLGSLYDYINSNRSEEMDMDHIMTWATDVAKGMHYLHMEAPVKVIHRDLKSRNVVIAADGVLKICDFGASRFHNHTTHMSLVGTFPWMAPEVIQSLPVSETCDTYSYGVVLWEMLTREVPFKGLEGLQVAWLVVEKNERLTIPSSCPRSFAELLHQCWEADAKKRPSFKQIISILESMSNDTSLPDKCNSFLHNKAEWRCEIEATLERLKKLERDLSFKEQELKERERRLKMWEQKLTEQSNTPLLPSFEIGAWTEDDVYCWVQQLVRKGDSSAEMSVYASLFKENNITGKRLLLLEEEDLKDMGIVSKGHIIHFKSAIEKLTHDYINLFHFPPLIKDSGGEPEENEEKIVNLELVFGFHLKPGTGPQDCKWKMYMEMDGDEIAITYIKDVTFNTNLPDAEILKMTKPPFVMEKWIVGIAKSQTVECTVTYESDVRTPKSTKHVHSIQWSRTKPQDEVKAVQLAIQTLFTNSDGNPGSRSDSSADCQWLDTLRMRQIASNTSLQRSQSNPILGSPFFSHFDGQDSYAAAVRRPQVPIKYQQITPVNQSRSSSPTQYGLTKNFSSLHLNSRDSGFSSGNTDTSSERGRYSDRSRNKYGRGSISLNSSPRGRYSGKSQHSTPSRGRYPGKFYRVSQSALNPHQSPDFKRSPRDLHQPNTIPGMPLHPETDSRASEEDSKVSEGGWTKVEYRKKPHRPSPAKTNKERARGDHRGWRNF

[14] = molecular target: Protein arginine N-methyltransferase 1 (Homo sapiens, UniProt Q99873); conditions: at 10 µM
Chain of Protein arginine N-methyltransferase 1 (Q99873 whole entry, looked up): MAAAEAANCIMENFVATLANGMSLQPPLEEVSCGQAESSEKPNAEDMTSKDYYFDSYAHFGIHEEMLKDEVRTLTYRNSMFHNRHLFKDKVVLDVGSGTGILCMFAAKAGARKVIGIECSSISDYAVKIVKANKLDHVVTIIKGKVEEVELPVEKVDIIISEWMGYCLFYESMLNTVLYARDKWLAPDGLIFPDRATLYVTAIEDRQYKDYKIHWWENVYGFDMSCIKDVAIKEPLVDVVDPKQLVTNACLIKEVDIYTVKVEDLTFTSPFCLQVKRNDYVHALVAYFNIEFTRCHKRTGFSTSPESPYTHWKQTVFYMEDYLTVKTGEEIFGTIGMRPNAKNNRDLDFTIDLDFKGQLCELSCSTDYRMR

[15] = molecular target: Macrophage colony-stimulating factor 1 receptor (Homo sapiens) (UniProt P07333); assay: Selectivity interaction (KinomeScan (DiscoverX)) EUB0000229b CSF1R; conditions: at 10 µM
[16] = molecular target: Cyclin-dependent kinase-like 1 (Homo sapiens) (UniProt Q00532); assay: Selectivity interaction (KinomeScan (DiscoverX)) EUB0000618a CDKL1; conditions: at 10 µM
[17] = molecular target: Mitogen-activated protein kinase kinase kinase kinase 1 (Homo sapiens) (UniProt Q92918); assay: Selectivity interaction (KinomeScan (DiscoverX)) EUB0001619a MAP4K1; conditions: at 1 µM

Structure (SMILES): CNC(=O)Nc1ccc(-c2nc(N3CC4CCC(C3)O4)c3cnn(C4CCC5(CC4)OCCO5)c3n2)cc1
% of control [2]: 42%

Structure (SMILES): Cc1cc(F)c(C(=O)Nc2cccc(-c3nncn3C(C)C)n2)cc1-n1cnc(C2CC2)c1
% of control [7]: 97%

Structure (SMILES): CN(C)C/C=C/C(=O)Nc1ccc(C(=O)N2CCCC(Nc3ncc(Cl)c(-c4c[nH]c5ccccc45)n3)C2)cc1 (stereo unspecified)
% of control [9]: 28%

Structure (SMILES): C=CC(=O)Nc1cc(-n2c(=O)ccc3cnc4ccc(-c5ccc(NS(C)(=O)=O)cc5)cc4c32)ccc1C
% of control ([11]; at 1 µM): 100% | % of control ([11]; at 10 µM): 95% | % of control ([12]; at 1 µM): 100% | % of control ([12]; at 10 µM): 89% | % of control ([13]; at 1 µM): 64% | % of control ([13]; at 10 µM): 12%

Structure (SMILES): COc1cc(N(C)c2ccnc3ccc(C(F)(F)F)cc23)cc(OC)c1OC
% binding [15]: 91%

Structure (SMILES): O[C@H]1CC[C@H](Nc2ncc3nc(Nc4c(F)cc(F)cc4F)n([C@H]4CCOC4)c3n2)CC1
% of control [16]: 95%

Structure (SMILES): N#Cc1cccc(-c2c[nH]c3ncnc(N4CCOCC4)c23)c1
% of control [17]: 79%

Next, values leading:

% of control [1]: -6.26%
Structure (SMILES): Cn1cc(-n2cnc3c(NCc4nc5cc(Cl)c(Cl)cc5[nH]4)nc(N4CCOCC4)nc32)cn1

% of control [3]: 100%
Structure (SMILES): CCN(CC)CCCCNc1ncc2cc(-c3cc(OC)cc(OC)c3)c(NC(=O)NC(C)(C)C)nc2n1

% of inhibition [4]: 19.6% | % of inhibition [5]: -4.1%
Structure (SMILES): CC[C@@H]1[C@H](F)C(=O)N[C@@H]1COc1nccc2cc(C(N)=O)c(OC)cc12 [ZIMLOVISERTIB]

% of control ([6]; at 1 µM): 67% | % of control ([6]; at 5 µM): 37%
Structure (SMILES): C=CC(=O)Nc1cccc(C(=O)Nc2ccc(Nc3cc(-c4[nH]c(SC)nc4C)ccn3)cc2)c1

EC50 [8]: > 50 µM
Structure (SMILES): CN(C(=O)c1cnn2cccnc12)c1cc2c(cc1N1CCOCC1)C(=O)N(C[C@@H](F)C(C)(C)O)C2

IC50 [10]: > 10 µM
Structure (SMILES): CCc1cccc(CC)c1NC(=O)c1nn(C)c2c1CCc1cnc(Nc3ccc(C(=O)NC4CCN(C)CC4)cc3OC(F)(F)F)nc1-2

% activity [14]: > 90%
Structure (SMILES): CNCCN1CCC(c2cc(CN(C)C(=O)c3cccc(Oc4ccccc4)c3)ccn2)CC1
